Experimental findings from patent US10570099B2, “Salts of an epidermal growth factor receptor kinase inhibitor” (Celgene CAR LLC, priority 2012, dated 2020) are described below.

Data set [1] is described as follows: Slurry in pH 6.2 aqueous medium (conversion to unknown solid form). The class given is physicochemical. Conditions: slurry in aqueous pH 6.2 medium, ambient, XRPD. As to the method:
In attempts to characterize this form, as well as establish the rate of conversion to this form while slurrying the material, the following experiments were carried out. Initially, approximately 100 mg of the hydrobromide (1 equiv.) material was slurried in a pH 6.2 aqueous solution at ambient and XRPD analysis was carried out at time points 5 min., 1 hr, 2 hrs, 4 hrs and 8 hrs. Further analysis was then also carried out on the converted material.

Data set [2] is described as follows: 1 week stability study (XRPD and HPLC). The class given is physicochemical. Conditions: 1 week, listed as hydrobromide salt. As for the experimental part:
(§1) Resulting solids were analysed by XRPD and HPLC to establish if any changes had occurred.
as §1
The resulting solids were analysed by XRPD and HPLC to establish if any changes had occurred.

A short description of data set [3]: Intrinsic dissolution of compressed discs. The class given is physicochemical. Conditions: early time points. As for the experimental part: A Sotax AT7 dissolution bath (USP 2, EP 2 apparatus) was used for the dissolution study in which paddles were used to stir the media. All tests were carried out at 37° C. and a paddle speed of 100 rpm.
(§2) Approximately 100-120 mg of each form was compressed into discs by placing the material into a die (diameter: 13 mm) and compressing the die under 5 tons of pressure in a hydraulic press for ca. 2 minutes. A Sotax AT7 (conformed to EP2 and USP2) dissolution instrument was used containing paddles to stir the media at 100 rpm. Dissolution media of pH 3 (1% SDS) and pH 4.5 (1% SDS) were prepared using citrate/phosphate buffer. All materials were tested in 750 ml of the buffer medium. Discs were added at time=0 seconds and allowed to sink to the bottom of the dissolution vessel before stirring began. ca. 1 ml aliquots of media were extracted from the dissolution vessels at times 1, 5, 10, 15, 30, 60, 120, 240 minutes and 24 hours, and tested for dissolved salt concentration by HPLC-UV. The dissolution tests were carried out in duplicate. For both dissolution media, the peak areas for the initial time points (up to 15 minutes), fell below the limit of quantification, however, when plotting Dissolution rate vs. time, the steepest part of the curve occurs during these early time points.
as §2, with “material” for “each form”, “API” for “dissolved salt”

The nature of data set [4]: Dynamic vapour sorption (DVS). It is filed as physicochemical. As to the method: For dynamic vapour sorption (DVS), approximately 10-20 mg of sample was placed into a wire mesh vapour sorption balance pan and loaded into a DVS-1 dynamic vapour sorption balance by Surface Measurement Systems. The sample was subjected to a ramping profile from 20-90% relative humidity (RH) at 10% increments, maintaining the sample at each step until a stable weight had been achieved (99.5% step completion). After completion of the sorption cycle, the sample was dried using the same procedure, but all the way down to 0% RH and finally taken back to the starting point of 20% RH. The weight change during the sorption/desorption cycles were plotted, allowing for the hygroscopic nature of the sample to be determined.

Data set [5] in a line: Dog PK Study 1 (cross-over, fasted). It is filed as in vivo, beagle dogs. Conditions: fasted dogs, oral, 24.5-28.5 mg/kg QD. As to the method: Compound 1 free base and compound 2, as the Form I monohydrobromide (HBr) salt, were evaluated in a cross-over dog PK study. Compound 1 free base capsule consisted of compound 1 free base in Vitamin E TPGS and PEG 400 filled into a capsule. The Form I hydrobromide salt capsule consisted of Form I HBr alone filled into a capsule.
Compound 1 free base capsule and Form I HBr capsule were dosed orally at 28.5 and 24.5 mg/kg (as active) QD, respectively, to three fasted male non-naïve beagle dogs (body weight range: 10.1-10.8 kg) with a 5-day washout period. Approximately 5 mL of tap water was orally administered to encourage swallowing and ensure delivery of capsules into the stomach. Plasma samples were collected at pre-dose and 0.5, 1, 2, 4, 6, 8, 12 and 24 hours post dose. The plasma concentrations of compound 1 were determined by a liquid chromatography-tandem mass spectrometry (LC/MS/MS) method.

Data set [6] is described as follows: Hygroscopicity judged from TGA / water retained after drying. The class given is physicochemical. As for the experimental part: For thermogravimetric analysis (TGA), approximately 5-10 mg of material was accurately weighed into an open aluminium pan and loaded into a simultaneous thermogravimetric/differential thermal analyser (TG/DTA) and held at room temperature. The sample was then heated at a rate of 10° C./min from 25° C. to 300° C. during which time the change in sample weight was recorded along with any differential thermal events (DTA). Nitrogen was used as the purge gas, at a flow rate of 100 cm^3/min.

Data set [7] can be described thus: 1 week stability of primary screen salts at 40° C./75% RH and 80° C. (open vials, XRPD). It is filed as physicochemical. As to the method: (open vials). TGA was carried out after the stability studies for samples containing sufficient material.
A short description of data set [8]: Salt disproportionation study (slurry in deionized water). It is filed as physicochemical. The settings on record: deionized water slurry. As to the method: The pH of the supernatant was also monitored.
The hydrobromide salt was slurried in deionised water at ambient temperature (ca. 22° C.). […] The pH of the supernatant was also monitored.

The mark [9] stands for this setting: 40° C./75% RH, closed (crimped) vial.

Regarding `Br.C=CC(=O)Nc1cccc(Nc2nc(Nc3ccc(N4CCN(C(C)=O)CC4)cc3OC)ncc2C(F)(F)F)c1` [Form I hydrobromide salt], in data set [1], the “time of conversion to the unknown solid form” value lay in the range of 2 to 4 h. The “HPLC purity after storage” value is given as 97.2% in data set [2] (setting [9]); 97.2% in data set [2] (40° C./75% RH, open vial); 97.1% in data set [2] (80° C., open vial). The XRPD after storage entry in data set [2] (setting [9]) was “No polymorphic form changes observed”; in data set [2] (40° C./75% RH, open vial), “No polymorphic form changes observed”; in data set [2] (80° C., open vial) it was “No polymorphic form changes observed”. Also, the intrinsic dissolution value entry is “approximately 0.35 mg/cm^2/min” in data set [3] (pH 3.0 (1% SDS), tablet 1); “approximately 0.35 mg/cm^2/min” in data set [3] (pH 3.0 (1% SDS), tablet 2); “approximately 0.27 mg/cm^2/min” in data set [3] (pH 4.5 (1% SDS), tablet 1); approximately 0.28 mg/cm^2/min in data set [3] (pH 4.5 (1% SDS), tablet 2). For the same compound, the “post DVS XRPD analysis (polymorphic form)” value in data set [4] (after DVS cycles, listed as hydrobromide salt) is given as “remain consistent”. Besides, in data set [4] (between 20 and 70% RH), the “water uptake (DVS)” value stood at 0.97%. Further, in data set [5], the “compound 1 exposure (AUC and Cmax) compared to the free base form” value was “significantly higher”. Besides, the “hygroscopicity (TGA, water retained at ambient conditions)” value in data set [6] is “slightly hygroscopic”. Further, the “Stability 40° C./75% RH (open conditions)” value in data set [7] was “No form change, slight”. The “Stability 80° C. (open conditions)” value in data set [7] is on record as “No Form change”. For the same compound, the “pH of the supernatant” value in data set [8] (1 hr), in data set [8] (24 hrs) and in data set [8] (48 hrs) was “pH 1” in each case.
